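Where inhibition never reached the appropriate level, the endpoint shown equals the highest concentration tested. Otherwise, values were interpolated linearly from a five-concentration, 48-hour dose response in 96-well plates. Abbreviation: GI50, concentration required for 50% inhibition of growth.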 Activity calls are given as the source filed them. Cut-off read from the data, not from the text of the source: active = GI50 up to about 1.1 µM and inactive = higher. Some results are limits rather than exact numbers.

Some test systems named below: HCT-15; HCC 2998; EKVX; SF-539; UO-31; SR; DU-145; HT-29; K562; NCI-H460; PC-3; SK-OV-3; SN12C; UACC-62; LOX IMVI; SK-MEL-2; ACHN; COLO 205; RXF 393; CAKI-1.
Holding throughout (assay): NCI-60 cell line screen, 48 h

As to `CN(C)c1nc(N)nc(CCl)n1`, the GI50 in the assay on HCT-15 was 29.4 µM; in the assay with HCC 2998, 45.6 µM (inactive); in the assay with EKVX, 18.3 µM (inactive); in the assay with SF-539 it was 26.1 µM (inactive); in the assay with UO-31, 12.4 µM (inactive); in the assay on SR it was 24.9 µM (inactive). The GI50 in the assay on DU-145 is 99.5 µM (inactive); in the assay with HT-29 it was 41.1 µM (inactive); in the assay with K562, 29 µM (inactive); in the assay on NCI-H460, 32.7 µM (inactive); in the assay with PC-3, 74.8 µM (inactive); in the assay on SK-OV-3, 56.2 µM (inactive). Besides, the GI50 in the assay with SN12C is 43.4 µM (inactive); with UACC-62 it was 18.9 µM (inactive); in the assay with LOX IMVI it was 7.87 µM (inactive); in the assay on SK-MEL-2 it was > 100 µM (inactive); in the assay on ACHN, 15.8 µM (inactive); in the assay with COLO 205 it was 29.2 µM (inactive). Also, the GI50 was 26.5 µM (inactive) in the assay with RXF 393 and 5.14 µM (inactive) with CAKI-1.

Turning to `CCCCOCOc1ccccc1P1(=O)COc2ccccc2OC1`, the GI50 in the assay on HCT-15 is 87.1 µM; with HCC 2998, > 100 µM (inactive); with EKVX it was > 100 µM (inactive); in the assay on SF-539 it was > 100 µM (inactive); in the assay on UO-31, 38.7 µM (inactive); in the assay with SR, 37.1 µM (inactive). The GI50 is > 100 µM (inactive) with DU-145; > 100 µM (inactive) with HT-29; 52.2 µM (inactive) in the assay on K562; 58.3 µM (inactive) in the assay with NCI-H460; 55.3 µM (inactive) with PC-3; > 100 µM (inactive) in the assay with SK-OV-3. Moreover, the GI50 is > 100 µM (inactive) with SN12C; 66.2 µM (inactive) in the assay with UACC-62; > 100 µM (inactive) in the assay with LOX IMVI; > 100 µM (inactive) with SK-MEL-2; 86.7 µM (inactive) in the assay with ACHN; 63 µM (inactive) in the assay with COLO 205. Moreover, the GI50 with RXF 393 is 37.8 µM (inactive); with CAKI-1 it was > 100 µM (inactive).

As to `CC/C(Cl)=N\OC(=O)Nc1ccc(F)c(Cl)c1`, the GI50 was 15.2 µM in the assay with HCT-15; 18.7 µM (inactive) in the assay with HCC 2998; 18.2 µM (inactive) in the assay on EKVX; 19.8 µM (inactive) with SF-539; 18.3 µM (inactive) in the assay with UO-31; 4.99 µM (inactive) in the assay on SR. In addition, the GI50 was 19.7 µM (inactive) with DU-145; 24 µM (inactive) in the assay on HT-29; 1.84 µM (inactive) in the assay on K562; 17.7 µM (inactive) in the assay with NCI-H460; 16 µM (inactive) in the assay with PC-3; 18.5 µM (inactive) with SK-OV-3. The GI50 is 18 µM (inactive) with SN12C; 20.6 µM (inactive) in the assay with UACC-62; 4.91 µM (inactive) in the assay on LOX IMVI; 17.3 µM (inactive) in the assay on SK-MEL-2; 13.8 µM (inactive) in the assay on ACHN; 2.82 µM (inactive) in the assay on COLO 205. The results for the GI50 with RXF 393 and in the assay with CAKI-1 were 12.1 µM (inactive) and 5.21 µM (inactive), respectively.

As to `Cc1nc2ccccc2n1CCc1nc2ccccc2s1`, the GI50 in the assay on HCT-15 is 87.7 µM; in the assay with HCC 2998 it was 38.3 µM (inactive); in the assay on EKVX, 7.23 µM (inactive); in the assay on SF-539, 35.2 µM (inactive); with UO-31, 1.93 µM (inactive); in the assay with SR, 11.6 µM (inactive). The GI50 with DU-145 was 70.5 µM (inactive); in the assay with HT-29 it was 21.1 µM (inactive); in the assay with K562 it was 11 µM (inactive); with NCI-H460, 31.2 µM (inactive); with PC-3 it was 39.9 µM (inactive); with SK-OV-3, > 100 µM (inactive). For the same compound, the GI50 was > 100 µM (inactive) in the assay with SN12C; 60.8 µM (inactive) in the assay with UACC-62; 64.9 µM (inactive) in the assay on LOX IMVI; 86.9 µM (inactive) in the assay with SK-MEL-2; 20 µM (inactive) in the assay on ACHN; 26.9 µM (inactive) in the assay on COLO 205. The values for the GI50 in the assay on RXF 393 and with CAKI-1 were 50 µM (inactive) and > 100 µM (inactive), respectively.
